Tests used:
[1] = tested on: ethanol induced ulcers (gastric mucous membrane); experiment: Necrosing agent model: ethanol induced ulcers in the rat; assay type: in vivo; conditions: for mm lesion (lesion index, mm of ulcer) / % inhibition (ulcer inhibition percentage versus control): ethanol, LV-208 100 mg/kg, Rn equimolar dose; for mm lesion (lesion index, mm of ulcer): mean ± error of the mean, control 82.0 ± 10.1, LV-208: p < 0.001 versus control, p < 0.05 versus Rn (t test); for % inhibition (ulcer inhibition percentage versus control): versus control group; for protection against the ethanol induced aggression: rat, equimolar doses of LV-208 and Rn, result in words
Method: (§1) As stated above, the formula I compounds have shown a potent antiulcer activity. Thus the inhibition of histamine induced gastric secretion "in vivo" in rats, after intraperitoneal administration of these zinc-furan compounds at dose levels of 0.5; 1; 2 and 4 mg/kg reaches pH recovery levels, increasing with the dose, of 100%.
Particularly, the antiulcer activity of the compound LV-208 has been studied with evaluation of the secretion inhibiting and gastric mucous membrane protecting activity in the rat.
The activity of LV-208 was compared with the activity of Rn at equimolar doses using the necrosing agent model, ethanol in this case, described by Robert et al. (Gastroenterology, 77: 433, 1979), versus a control group administered excipient.
The following Table gives the lesion indexes (in mm of ulcer) of the three groups studied, as well as the ulcer inhibition percentages of the treated groups versus the control group (mean values±the error of the mean).

[2] = tested on: histamine induced gastric acid secretion; experiment: "In vivo" histamine induced gastric acid secretion model in the rat; conditions: Wistar rats, intraperitoneal
Method: as §1
This activity was measured in Wistar rats having a body weight of 240±20 g. An endovenous perfusion of a histamine solution stimulated the gastric secretion producing a drop in the intragastric pH. LV-208 was thereafter administered intraperitoneally and the increase in the gastric pH that this produced was evaluated. An ED50 of 0.8 mg/kg and recovery of 100% at a dose of 4 mg/kg was obtained by a dose-response curve.

SMILES | mm lesion (lesion index, mm of ulcer) [1] [mm] | % inhibition (ulcer inhibition percentage versus control) [1] [%] | protection against the ethanol induced aggression [1] | recovery (gastric pH) ([2]; dose of 4 mg/kg) [%] | ED50 (increase in gastric pH, inhibition of histamine induced gastric acid secretion) ([2]; endovenous histamine perfusion, dose-response curve) [mg/kg]
CNC(=C[N+](=O)[O-])NCCSCc1ccc(CN(C)C)o1.[Cl][Zn][Cl] [LV-208] | 4.8 ± 1.8 | 94.1 | practically complete protection | 100 | 0.8
CNC(=C[N+](=O)[O-])NCCSCc1ccc(CN(C)C)o1 [Rn, N,N-dimethyl-5-(2-(1-methylamino-2-nitrovinylamino)ethylthiomethyl)furfurylamine, reference compound] | 40.6 ± 15.0 | 50.5 | discreet protection | – | –

Reference: patent US5041557A, “Furan derivatives” (Laboratorios Vinas S.A., priority 1989, dated 1991)
